The record followed here is patent US6544727B1, “Methods and devices for the removal of psoralens from blood products” (Cerus Corporation, priority 1995, dated 2003).

The test system of one series is HIV-1. Conditions: 1 minute irradiation.
The next series has as its system R17 bacteriophage. Put plainly: R17 bacteriophage inactivation assay, varying compound concentration. Format: cell-based. The following applies: for R17 Log Kill: starting titer approx. 7.1 logs; for R17 inactivation efficiency compared with AMT or 8-MOP (in words): varying concentration, Tables 6-9, FIGS. 6-10. As to the method: An r-17 bacteriophage assay was used in this example to predict pathogen inactivation efficiency and to determine nucleic acid binding of the photoreactive binding compounds of the present invention. In the r-17 assay, the bacteriophage was placed in a solution with each compound tested and was then irradiated. The ability of the phage to subsequently infect bacteria and inhibit their growth was measured. The bacteriophage was selected for its relatively accessible nucleic acid such that the culture growth inhibition would accurately reflect nucleic acid damage by the test compounds. The bacteriophage assay for nucleic acid binding to test compounds offers a safe and inexpensive procedure to identify compounds likely to display efficient pathogen inactivation.
The R17 was grown up in Hfr 3000 bacteria, approximate titer 5×10^11. (R17 and Hfr 3000 were obtained from American Tissue Culture Collection (ATCC), Washington, D.C.) The R17 phage stock was added to a solution of 15% fetal bovine serum in Dulbecco's Modified Eagles Medium (DMEM) to a final phage concentration of 10^9/mL. An aliquot (0.5 mL) was transferred to a 1.5 mL snap-top polyethylene tube. An aliquot (0.004-0.040 mL) of the test compound stock solution prepared in water, ethanol or dimethylsulfoxide at 0.80-8.0 mM was added to the tube. Compounds were tested at concentrations between 4 μM and 320 μM. […] The tubes were placed in a light device as described in EXAMPLE 1 and irradiated for between 1 and 10 minutes. Sterile 13 mL dilution tubes were prepared; each test compound required one tube with 0.4 mL of Luria broth (LB) and five tubes containing 0.5 mL of LB broth. To make the dilutions, a 0.100 mL aliquot of the irradiated solution of phage and test compound was added to the first dilution tube of 0.4 mL of media then 0.020 mL of this solution was added to the second tube of 0.5 mL medium (1:25). The second solution was then diluted serially (1:25) into the remaining tubes. To each diluted sample was added 0.050 mL of Hfr 3000 bacteria cultured overnight and 3 mL of molten LB top agar and the mixed materials were poured onto LB broth plates. After the top agar hardened, the plates were incubated at 37° C. overnight. The plaque forming units were then counted the following morning and the titer of the phage remaining after phototreatment was calculated based on the dilution factors.
The following controls were run: the “phage only” in which phage was not treated with test compound and not irradiated (listed as “starting titer” in the tables below); the “UV only” in which the phage was irradiated in the absence of test compound; and the “dark” control in which the phage/test compound solution was not irradiated before it was diluted and plated.

For series [1], the system named is Salmonella tester strain TA98. Nature of the series: Ames test, strain TA98. Conditions: TA98 − S9; 10 μg/plate. The procedure: (§1) In this example the compounds of the present invention are tested for their dark mutagenicity using an Ames assay. The procedures used for the Salmonella mutagenicity test as described in detail by Maron and Ames were followed exactly. Maron, D. M. and B. N. Ames, Mutation Research 113: 173 ( 1983). A brief description for each procedure is given here. The tester strains TA97a, TA98, TA100, TA102, TA1537 and TA1538 were obtained from Dr. Ames. TA97a, TA98, TA1537 and TA1538 are frameshift tester strains. TA100 and TA102 are base-substitution tester strains. Upon receipt each strain was cultured under a variety of conditions to confirm the genotypes specific to the strains.
(§2) The first tests done with the strains were to determine the range of spontaneous reversion for each of the strains. With each mutagenicity experiment the spontaneous reversion of the tester strains to histidine independence was measured and expressed as the number of spontaneous revertants per plate. This served as the background controls.
For all experiments, the pre-incubation procedure was used. In this procedure one vial of each tester strain was thawed and 20 μL of this culture was added to 6 mL of Oxoid Nutrient Broth #2. This solution was allowed to shake for 10 hours at 37° C. In the pre-incubation procedure, 0.1 mL of this overnight culture was added to each of the required number of sterile test tubes. To half of the tubes 0.5 mL of a 10% S-9 solution containing Aroclor 1254 induced rat liver extract (Molecular Toxicology Inc., Annapolis, Md.), and MgCl2, KCl, glucose-6-phosphate, NADP, and sodium phosphate buffer (Sigma, St. Louis, Mo.) were added. To the other half of the tubes 0.5 mL of 0.2M sodium phospate buffer, pH 7.4, was used in place of the S-9 mixture (the—S9samples). […] The 0.7 mL mixture was vortexed and then pre-incubated while shaking for 20 minutes at 37° C. After shaking, 2 mL of molten top agar supplemented with histidine and biotin were added to the 0.7 mL mixture and immediately poured onto a minimal glucose agar plate (volume of base agar was 20 mL). The top agar was allowed 30 minutes to solidify and then the plates were inverted and incubated for 44 hours at 37° C. After incubation the number of revertant colonies on each plate were counted. […] (“n” represents the number of replicates performed for each data point.)
(In general: The Ames test uses bacterial strains that need an amino acid and regain growth without it when mutated back.)

Series [2] relates to Salmonella tester strain TA1537. Put plainly: Ames test, strain TA1537. The following applies: TA1537 − S9; 10 μg/plate. As to the method:
as §1, §2
(§3) For all experiments, the pre-incubation procedure was used. In this procedure one vial of each tester strain was thawed and 20 μL of this culture was added to 6 mL of Oxoid Nutrient Broth #2. This solution was allowed to shake for 10 hours at 37° C. In the pre-incubation procedure, 0.1 mL of this overnight culture was added to each of the required number of sterile test tubes. To half of the tubes 0.5 mL of a 10% S-9 solution containing Aroclor 1254 induced rat liver extract (Molecular Toxicology Inc., Annapolis, Md.), and MgCl2, KCl, glucose-6-phosphate, NADP, and sodium phosphate buffer (Sigma, St. Louis, Mo.) were added. To the other half of the tubes 0.5 mL of 0.2M sodium phospate buffer, pH 7.4, was used in place of the S-9 mixture (the—S9samples). Finally 0.1 mL of the test solution containing either 0, 0.1, 0.5, 1, 5, 10, 50, 100, 250, or 500 μg/mL of the test compound was added. The 0.7 mL mixture was vortexed and then pre-incubated while shaking for 20 minutes at 37° C. After shaking, 2 mL of molten top agar supplemented with histidine and biotin were added to the 0.7 mL mixture and immediately poured onto a minimal glucose agar plate (volume of base agar was 20 mL). The top agar was allowed 30 minutes to solidify and then the plates were inverted and incubated for 44 hours at 37° C. After incubation the number of revertant colonies on each plate were counted. […] (“n” represents the number of replicates performed for each data point.)

Series [3] concerns Salmonella tester strain TA102. Put plainly: Ames test, strain TA102. The following applies: TA102 − S9; 100 μg/plate. The procedure:
as §1, §2, §3

The next series has as its system mouse reticulocytes. Conditions: positive control, 30 mg/kg administered only once, on day three, blood on day 5; 30 mg/kg. As to the method:
Male Balb/c mice were then injected with 0.1 ml of a compound solution via the tail vein. At least 3 mice were injected per dose level. Saline only was used as a negative control. For a positive control, cyclophosphamide (cycloPP) was administered at a dose of 30 mg/kg. In the experimental group, the injections were repeated once per day for four days. In the positive control group, the sample was administered only once, on day three. On day 5, several microliters of blood were withdrawn from each subject and smeared on a glass slide. Cells were fixed in absolute methanol and stored in a slide rack.
For analysis, cells were stained with acridine orange and visualized under a fluorescence microscope by counting: (i) the number of reticulocytes per 5000 erythrocytes; and (ii) the number of micronucleated reticulocytes per 1000 reticulocytes. Reticulocytes were distinguished by their red fluorescence due to the presence of RNA. Micronuclei were distinguished by their green fluorescence due to the presence of DNA. The percentage of reticulocytes (%PCE) was then calculated. A decrease in the frequency of […] in the percentage of reticulocytes, is an indication of bone marrow toxicity. The percentage of reticulocytes with micronuclei (%PCE with MN) was also calculated. An increase in %PCE with MN is a measure of clastogenicity.
After initial results were determined, the experiment was repeated using increased dose levels, until: (i) Micronucleus formation was seen; or (ii) Bone marrow toxicity was observed; or (iii) The lethal dose was reached; or (iv) A dose of 5 g/kg was administered.

The test system of series [4] is Salmonella tester strain TA100. The following applies: TA100 − S9; 1.5 μg/plate. The procedure: as §1, §2, §3
Series [5] relates to Salmonella tester strain TA1538. Conditions: TA1538 − S9; 1.5 μg/plate. The procedure:
as §1, §2, §3

Setting [6] is: 16 μM, starting titer approximately 5 logs (Table 10).
Setting [7] is: 32 μM, starting titer approximately 5 logs (Table 10).
[8] abbreviates: 64 μM, starting titer approximately 5 logs (Table 10).

Read-outs that look alike come from different tables or passages of the source. Where only a bound is given, the exact number is not on record here.

Protocol for HIV-1: As in the R17 assay, small aliquots of the compounds listed in TABLES 10 and 11, below, at the concentrations listed in the table, were added to stock HIV-1 to a total of 0.5 mL. The stock HIV (10^5−10^7 plaque forming units/mL) was in DMEM15% FBS. […] Controls included HIV-1 stock only, HIV-1 plus UVA only, and HIV-1 plus the highest concentration of each psoralen tested, with no UVA. Post irradiation, all samples were store frozen at −70° C. until assayed for infectivity by a microtiter plaque assay. Aliquots for measurement of residual HIV infectivity in the samples treated with a compound of the present invention were withdrawn and cultured.
Residual HIV infectivity was assayed using an MT-2 infectivity assay. […] The assay medium was 85% DMEM (with a high glucose concentration) containing 100 μg of streptomycin, 100 U of penicillin, 50 μg of gentamicin, and 1 μg of amphotericin B per mL, 15% FBS and 2 μg of Polybrene (Sigma Chemical Co., St. Louis, Mo.) per mL. Test and control samples from the inactivation procedure were diluted in 50% assay medium and 50% normal human pooled plasma The samples were serially diluted directly in 96-well plates (Corning Glass Works, Corning, N.Y.). The plates were mixed on an oscillatory shaker for 30 seconds and incubated at 37° C. in a 5% CO2 atmosphere for 1 to 18 hours. […] After an additional 1 hour of incubation at 37° C. in 5% CO2, 0.075 mL of assay medium containing 1.6% SeaPlaque agarose (FMC Bioproducts, Rockland, Me.) and prewarmed to 38.5° C. was added to each well. The plates were kept at 37° C. for a few minutes until several plates had accumulated and then centrifuged in plate carriers at 600×g for 20 minutes in a centrifuge precooled to 10° C. In the centrifuge, cell monolayers formed prior to gelling of the agarose layer. The plates were incubated for 5 days at 37° C. in 5% CO2 and stained by the addition of 0.05 mL of 50 μg/mL propidium iodide (Sigma Chemical Co.) in phosphate-buffered saline (pH 7.4) to each well. After 24 to 48 hours, the red fluorescence-stained microplaques were visualized by placing the plates on an 8,000 μW/cm^2304 nm UV light box (Fotodyne, Inc., New Berlin, Wis.). The plaques were counted at a magnification of x20 to x25 through a stereomicroscope.

In the case of `Cc1oc2c(C)c3oc(=O)cc(C)c3cc2c1COCCOCCNCCCCN` [Compound 8, 4′-(12-amino-8-aza-2,5-dioxa)dodecyl-4,5′,8-trimethylpsoralen], the results for the “HIV Log Kill” value with HIV-1 (setting [6]), in the series with HIV-1 (setting [7]) and with HIV-1 (setting [8]) were 1.1 log, 1.9 log and 3.7 log, respectively.

As for `Cc1oc2c(C)c3oc(=O)cc(C)c3cc2c1CNCCCOCCCCOCCN` [Compound 9, 4′-(13-amino-2-aza-6,11-dioxa)tridecyl-4,5′,8-trimethylpsoralen], the “HIV Log Kill” value in the series with HIV-1 (16 μM, starting titer approximately 5.4 logs (Table 11)) amounted to 0.8 log; in the series with HIV-1 (32 μM, starting titer approximately 5.4 logs (Table 11)), 1.4 log; with HIV-1 (64 μM, starting titer approximately 5.4 logs (Table 11)), 2.7 log.

In the case of `Cc1oc2c(C)c3oc(=O)cc(C)c3cc2c1COCCOCCN` [Compound 7, 4′-(7-amino-2,5-oxa)heptyl-4,5′,8-trimethylpsoralen], the “R17 Log Kill” value is given as above 6 log in the series on R17 bacteriophage (16 μM, 1 minute irradiation (Table 9)); above 6 log in the series with R17 bacteriophage (32 μM, 1 minute irradiation (Table 9)); above 6 log in the series on R17 bacteriophage (64 μM, 1 minute irradiation (Table 9)). Besides, the “HIV Log Kill” value with HIV-1 (setting [6]) was 0.8 log; in the series on HIV-1 (setting [7]) it was 2.1 log; with HIV-1 (setting [8]) it was 3.5 log.

Turning to `Nc1c2ccccc2nc2ccccc12` [9-Amino-acridine, reference compound], the “revertant colonies per plate” value in series [1] and in series [2] was 284 throughout.

For `OO` [hydrogen peroxide], in series [3], the “revertant colonies per plate” value was found to be 660.

Turning to `Cc1cc(=O)oc2c(C)c3oc(CNCCN)c(C)c3cc12` [Compound 16, 5′-(4-amino-2-aza)butyl-4,4′,8-trimethylpsoralen], the “R17 inactivation efficiency compared with AMT or 8-MOP (in words)” value in the series with R17 bacteriophage is recorded as “significantly higher inactivation efficiency than does AMT”.

Turning to `Cc1oc2c(C)c3oc(=O)cc(C)c3cc2c1CNCCCN` [Compound 5, 4′-(5-amino-2-aza)pentyl-4,5′,8-trimethylpsoralen], the “R17 Log Kill” value in the series on R17 bacteriophage (16 μM, 1 minute irradiation = 1.2 J/cm^2 (Table 8)) is given as 5.6 log; with R17 bacteriophage (32 μM, 1 minute irradiation = 1.2 J/cm^2 (Table 8)) it was above 6.1 log; with R17 bacteriophage (64 μM, 1 minute irradiation = 1.2 J/cm^2 (Table 8)), above 6.1 log. The “R17 inactivation efficiency compared with AMT or 8-MOP (in words)” value with R17 bacteriophage was “significantly higher inactivation efficiency than does AMT”. The “HIV Log Kill” value in the series on HIV-1 (setting [6]) is on record as 0.9 log; in the series with HIV-1 (setting [7]), 1.3 log; with HIV-1 (setting [8]), above 2.6 log.

For the compound `O=P1(N(CCCl)CCCl)NCCCO1` (stereo not drawn) [CylcoPP, cyclophosphamide, reference compound], in the series with mouse reticulocytes, the “PCE + MN (%)” value came out at 2.09 ± 0.17% and the “PCE/RBC (%)” value amounted to 0.99 ± 0.33%.

Turning to `[N-]=[N+]=[N-]` [Sodium Azide, sodium azide, reference compound], the “revertant colonies per plate” value in series [4] and in series [5] was 965 each time.
